From paper PMC10826971, “Evaluating protein cross-linking as a therapeutic strategy to stabilize SOD1 variants in a mouse model of familial ALS” (PLOS Biology, 2024)
Like-named read-outs stand apart in the source and are kept apart here.

Tests used:
SOD1^A4V = biological target: T1, SOD1^A4V (Homo sapiens, UniProt P00441, A5V); experiment: Differential scanning fluorimetry (DSF), thermal stability; format: binding
T1 construct: made in house; host or cells: EGy118ΔSOD1 yeast, YEp351 expression vector
Description: (§1) To understand how cross-linking effects SOD1 stability, we quantified changes in unfolding temperature (ΔTu, hereafter thermal stability).
(§2) The effect of cross-link formation on the thermal stability of SOD1 was determined by differential scanning fluorimetry as previously described. […] After incubation, SYPRO Orange (Invitrogen Corporation, Carlsbad, California, USA), an environmentally sensitive fluorescent dye which is quenched in an aqueous environment but becomes unquenched once it binds hydrophobic residues, was added to the reaction mixture to a final concentration of 200×. The samples were then transferred to a fast optical 96-well reaction plate (Applied Biosystem, Life Technologies Corporation, Carlsbad, California, USA) and loaded on to the real-time PCR machine (Applied Biosystem, Life Technologies Corporation, Carlsbad, California, USA) after plate was spun down to eliminate bubbles. The Melt curve template in StepOne Plus software was used to set up a method. […] The final concentration of DMSO in the reaction mixture was checked as it contributes to the denaturation of proteins. Dilutions were performed accordingly to maintain the final concentration of DMSO less than 1% (vol/vol). All samples were run in technical triplicates. The background data was subtracted from the average relative fluorescence and average derivate for each temperature point, and the data were normalized before Tus were quantified by averaging the negative first derivative of relative fluorescence of all 3 runs and identifying the local minima.

SOD1^G85R = biological target: T2, SOD1^G85R (Homo sapiens, UniProt P00441, G86R); experiment: as above; format: binding
T2 construct: made in house; host or cells: EGy118ΔSOD1 yeast, YEp351 expression vector
Description: as §1, §2

SOD1^G93A = SOD1^G93A (Homo sapiens, UniProt P00441, G94A); experiment: as above; format: binding; parameters: made in house; host or cells: EGy118ΔSOD1 yeast, YEp351 expression vector; settings: 10-fold molar excess S-XL6, 4 h 37°C; untreated 70.6°C
Description: as §1
as §2, with “Dilutions were performed accordingly to maintain the final concentration of DMSO less than 1% (vol/vol). All samples were run in technical triplicates.” left out

wild-type SOD1 = wild-type SOD1 (Homo sapiens, UniProt P00441); experiment: as above; format: binding; parameters: made in house; host or cells: EGy118ΔSOD1 yeast, YEp351 expression vector; settings: 10-fold molar excess S-XL6, 4 h 37°C; untreated 75.9°C
Description: as §1
as §2, with “Dilutions were performed accordingly to maintain the final concentration of DMSO less than 1% (vol/vol). All samples were run in technical triplicates.” left out

[1] = format: in vitro ADME; settings: human; for plasma protein binding assay readout (Fig 6C): 50 uM
Source text: Fig 6 Cross-linking at sub-toxic concentrations within cells. […] Results are shown as percentage of viable cells compared to a vehicle control. Note: cell viability <70% (dotted line) is generally considered as the threshold for cytotoxicity, and viabilities >100% indicate a trophic effect. Controls included EMEM with 0.1% DMSO (dimethyl sulfoxide, negative control) and 500 μm of chlorpromazine (positive control). […] The data underlying this figure can be found in S1 Data. LC-MS/MS, liquid chromatography-tandem mass spectrometry; MS, mass spectrometry; SOD1, superoxide dismutase 1.

T1 sequence (P00441 2-154 A5V limits assumed): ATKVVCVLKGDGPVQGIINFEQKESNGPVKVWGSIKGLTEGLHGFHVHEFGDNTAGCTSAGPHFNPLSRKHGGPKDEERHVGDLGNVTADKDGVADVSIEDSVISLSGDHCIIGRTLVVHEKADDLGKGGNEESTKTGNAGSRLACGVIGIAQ
T2 sequence (P00441 2-154 G86R limits assumed): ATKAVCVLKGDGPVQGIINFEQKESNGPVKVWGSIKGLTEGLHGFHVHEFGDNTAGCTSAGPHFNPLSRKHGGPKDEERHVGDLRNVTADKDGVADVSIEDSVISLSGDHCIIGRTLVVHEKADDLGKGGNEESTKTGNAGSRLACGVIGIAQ
wild-type SOD1, sequence (P00441 2-154 limits assumed): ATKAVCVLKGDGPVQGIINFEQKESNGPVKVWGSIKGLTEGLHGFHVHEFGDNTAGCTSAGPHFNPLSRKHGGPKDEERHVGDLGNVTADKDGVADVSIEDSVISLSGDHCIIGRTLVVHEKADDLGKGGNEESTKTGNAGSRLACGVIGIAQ
SOD1^G93A, sequence (P00441 2-154 G94A limits assumed): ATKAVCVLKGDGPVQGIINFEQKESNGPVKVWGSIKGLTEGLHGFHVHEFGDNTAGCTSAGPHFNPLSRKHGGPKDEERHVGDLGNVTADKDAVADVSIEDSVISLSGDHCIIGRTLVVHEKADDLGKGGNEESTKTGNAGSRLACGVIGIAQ

For `[O-][S+]1CCCCS1` (centres unmarked) [S-XL6, 1,2-dithiane-1-oxide], the “unfolding temperature (Tu) of S-XL6 cross-linked protein” value (shortened to “unfolding temperature (Tu)”) (SOD1^A4V; 10-fold molar excess S-XL6, 4 h 37°C, untreated 62.9°C) was 79.3 °C, the “Normalized ROX” value (SOD1^A4V; SOD1 (A4V) + S-XL6, Avg. Temp 88.559) was 0.8246 and the “Normalized ROX” value (SOD1^A4V; SOD1 (A4V) + S-XL6, Avg. Temp 88.8631) was 0.8068. For the same compound, the “Normalized ROX” value (SOD1^A4V; SOD1 (A4V) + S-XL6, Avg. Temp 89.1556) was 0.7806, the “Normalized ROX” value (SOD1^A4V; SOD1 (A4V) + S-XL6, Avg. Temp 89.4509) was 0.7704 and the “Normalized ROX” value (SOD1^A4V; SOD1 (A4V) + S-XL6, Avg. Temp 89.7543) was 0.7528. For the same compound, the “Normalized ROX” value (SOD1^A4V; SOD1 (A4V) + S-XL6, Avg. Temp 90.0524) was 0.7438, the “Normalized ROX” value (SOD1^A4V; SOD1 (A4V) + S-XL6, Avg. Temp 90.3511) was 0.7281 and the “Normalized ROX” value (SOD1^A4V; SOD1 (A4V) + S-XL6, Avg. Temp 90.6551) was 0.7134. For the same compound, the “Normalized ROX” value (SOD1^A4V; SOD1 (A4V) + S-XL6, Avg. Temp 90.9595) was 0.6972, the “Normalized ROX” value (SOD1^A4V; SOD1 (A4V) + S-XL6, Avg. Temp 91.2522) was 0.6869 and the “Normalized ROX” value (SOD1^A4V; SOD1 (A4V) + S-XL6, Avg. Temp 91.5534) was 0.6765. For the same compound, the “Normalized ROX” value (SOD1^A4V; SOD1 (A4V) + S-XL6, Avg. Temp 91.844) was 0.6607, the “Normalized ROX” value (SOD1^A4V; SOD1 (A4V) + S-XL6, Avg. Temp 92.1549) was 0.6557 and the “Normalized ROX” value (SOD1^A4V; SOD1 (A4V) + S-XL6, Avg. Temp 92.4505) was 0.6388. For the same compound, the “Normalized ROX” value (SOD1^A4V; SOD1 (A4V) + S-XL6, Avg. Temp 92.7501) was 0.6357, the “Normalized ROX” value (SOD1^A4V; SOD1 (A4V) + S-XL6, Avg. Temp 93.0577) was 0.6246 and the “Normalized ROX” value (SOD1^A4V; SOD1 (A4V) + S-XL6, Avg. Temp 93.3585) was 0.6123. The “Normalized ROX” value (SOD1^A4V; SOD1 (A4V) + S-XL6, Avg. Temp 93.6532) was 0.6065, the “Normalized ROX” value (SOD1^A4V; SOD1 (A4V) + S-XL6, Avg. Temp 93.9591) was 0.6047 and the “Normalized ROX” value (SOD1^A4V; SOD1 (A4V) + S-XL6, Avg. Temp 94.2561) was 0.5946. For the same compound, the “Normalized ROX” value (SOD1^A4V; SOD1 (A4V) + S-XL6, Avg. Temp 94.5503) was 0.5850, the “Normalized ROX” value (SOD1^A4V; SOD1 (A4V) + S-XL6, Avg. Temp 94.8582) was 0.5820 and the “unfolding temperature (Tu)” value (SOD1^G85R; 10-fold molar excess S-XL6, 4 h 37°C, untreated 40.8°C) was 65.1 °C. The “Normalized ROX” value (SOD1^G85R; SOD1 G85R Protein+S-XL6, Avg. Temp 88.557) was 0.19, the “Normalized ROX” value (SOD1^G85R; SOD1 G85R Protein+S-XL6, Avg. Temp 88.853) was 0.18 and the “Normalized ROX” value (SOD1^G85R; SOD1 G85R Protein+S-XL6, Avg. Temp 89.160) was 0.17. For the same compound, the “Normalized ROX” value (SOD1^G85R; SOD1 G85R Protein+S-XL6, Avg. Temp 89.454) was 0.17, the “Normalized ROX” value (SOD1^G85R; SOD1 G85R Protein+S-XL6, Avg. Temp 89.762) was 0.16 and the “Normalized ROX” value (SOD1^G85R; SOD1 G85R Protein+S-XL6, Avg. Temp 90.051) was 0.15. The “Normalized ROX” value (SOD1^G85R; SOD1 G85R Protein+S-XL6, Avg. Temp 90.354) was 0.15, the “Normalized ROX” value (SOD1^G85R; SOD1 G85R Protein+S-XL6, Avg. Temp 90.655) was 0.14 and the “Normalized ROX” value (SOD1^G85R; SOD1 G85R Protein+S-XL6, Avg. Temp 90.952) was 0.13. The “Normalized ROX” value (SOD1^G85R; SOD1 G85R Protein+S-XL6, Avg. Temp 91.251) was 0.13, the “Normalized ROX” value (SOD1^G85R; SOD1 G85R Protein+S-XL6, Avg. Temp 91.555) was 0.12 and the “Normalized ROX” value (SOD1^G85R; SOD1 G85R Protein+S-XL6, Avg. Temp 91.855) was 0.11. The “Normalized ROX” value (SOD1^G85R; SOD1 G85R Protein+S-XL6, Avg. Temp 92.157) was 0.11, the “Normalized ROX” value (SOD1^G85R; SOD1 G85R Protein+S-XL6, Avg. Temp 92.449) was 0.10 and the “Normalized ROX” value (SOD1^G85R; SOD1 G85R Protein+S-XL6, Avg. Temp 92.753) was 0.10. The “Normalized ROX” value (SOD1^G85R; SOD1 G85R Protein+S-XL6, Avg. Temp 93.058) was 0.09, the “Normalized ROX” value (SOD1^G85R; SOD1 G85R Protein+S-XL6, Avg. Temp 93.353) was 0.09 and the “Normalized ROX” value (SOD1^G85R; SOD1 G85R Protein+S-XL6, Avg. Temp 93.651) was 0.08. For the same compound, the “Normalized ROX” value (SOD1^G85R; SOD1 G85R Protein+S-XL6, Avg. Temp 93.955) was 0.0744, the “Normalized ROX” value (SOD1^G85R; SOD1 G85R Protein+S-XL6, Avg. Temp 94.247) was 0.07 and the “Normalized ROX” value (SOD1^G85R; SOD1 G85R Protein+S-XL6, Avg. Temp 94.552) was 0.07. The “Normalized ROX” value (SOD1^G85R; SOD1 G85R Protein+S-XL6, Avg. Temp 94.853) was 0.06, the “Normalized ROX” value (SOD1^G85R; SOD1 G85R Protein+S-XL6, Avg. Temp 95.157) was 0.06 and the “Normalized ROX” value (SOD1^G85R; SOD1 G85R Protein+S-XL6, Avg. Temp 95.458) was 0.05. The “Normalized ROX” value (SOD1^G85R; SOD1 G85R Protein+S-XL6, Avg. Temp 95.752) was 0.05, the “Normalized ROX” value (SOD1^G85R; SOD1 G85R Protein+S-XL6, Avg. Temp 96.054) was 0.044 and the “Normalized ROX” value (SOD1^G85R; SOD1 G85R Protein+S-XL6, Avg. Temp 96.360) was 0.04. The “Normalized ROX” value (SOD1^G85R; SOD1 G85R Protein+S-XL6, Avg. Temp 96.652) was 0.0332, the “Normalized ROX” value (SOD1^G85R; SOD1 G85R Protein+S-XL6, Avg. Temp 96.955) was 0.0323 and the “Normalized ROX” value (SOD1^G85R; SOD1 G85R Protein+S-XL6, Avg. Temp 97.253) was 0.0276. The “Normalized ROX” value (SOD1^G85R; SOD1 G85R Protein+S-XL6, Avg. Temp 97.554) was 0.0216, the “Normalized ROX” value (SOD1^G85R; SOD1 G85R Protein+S-XL6, Avg. Temp 97.851) was 0.02 and the “Normalized ROX” value (SOD1^G85R; SOD1 G85R Protein+S-XL6, Avg. Temp 98.161) was 0.0177. For the same compound, the “Normalized ROX” value (SOD1^G85R; SOD1 G85R Protein+S-XL6, Avg. Temp 98.455) was 0.0121, the “Normalized ROX” value (SOD1^G85R; SOD1 G85R Protein+S-XL6, Avg. Temp 98.751) was 0.0106 and the “Normalized ROX” value (SOD1^G85R; SOD1 G85R Protein+S-XL6, Avg. Temp 99.056) was 0.00748. For the same compound, the “Normalized ROX” value (SOD1^G85R; SOD1 G85R Protein+S-XL6, Avg. Temp 99.359) was 0.00339, the “Normalized ROX” value (SOD1^G85R; SOD1 G85R Protein+S-XL6, Avg. Temp 99.657) was 0.00106 and the “Normalized ROX” value (SOD1^G85R; SOD1 G85R Protein+S-XL6, Avg. Temp 99.866) was 0.00. For the same compound, the “unfolding temperature (Tu)” value (SOD1^G93A) was 85.0 °C, the “unfolding temperature (Tu)” value (wild-type SOD1) was 90.2 °C and the “plasma protein binding assay readout (Fig 6C)” value [1] was 79%. The plasma protein binding ([1]; plasma) was “no binding” and the “plasma protein binding assay readout (Fig 6C)” value ([1]; plasma) was 144%.
